Data set [1] addresses T1, COX-2 (Homo sapiens, UniProt P35354).
T1 sequence (P35354 18-604): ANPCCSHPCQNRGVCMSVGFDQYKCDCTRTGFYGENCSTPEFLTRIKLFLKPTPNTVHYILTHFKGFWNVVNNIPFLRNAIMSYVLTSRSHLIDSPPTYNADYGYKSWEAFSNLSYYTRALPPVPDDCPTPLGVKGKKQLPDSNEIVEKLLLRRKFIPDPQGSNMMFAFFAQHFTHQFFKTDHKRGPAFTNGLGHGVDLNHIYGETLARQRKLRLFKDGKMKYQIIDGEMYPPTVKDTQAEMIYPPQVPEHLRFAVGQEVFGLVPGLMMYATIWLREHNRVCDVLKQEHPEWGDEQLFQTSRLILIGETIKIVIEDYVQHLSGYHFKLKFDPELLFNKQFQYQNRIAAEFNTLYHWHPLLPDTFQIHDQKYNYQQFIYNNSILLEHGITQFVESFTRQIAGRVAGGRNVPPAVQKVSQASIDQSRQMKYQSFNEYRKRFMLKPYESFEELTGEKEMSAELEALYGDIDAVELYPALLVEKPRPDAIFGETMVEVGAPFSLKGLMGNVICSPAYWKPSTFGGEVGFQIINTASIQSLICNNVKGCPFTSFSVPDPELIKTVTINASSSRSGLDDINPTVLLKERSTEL
The data set can be described thus: NSAIDS and Opioid Receptor Test: COX-2. Conditions: 200 μM. It is filed as biochemical. How it is done:
(§1) Compounds were screened as DMSO solutions at 10 μM, 100 μM, or 200 μM and values represent percent inhibition of control-specific binding. […] As NSAID and opioid mechanisms of action are precluded, a person of ordinary skill in the art understands that undesirable side effects associated with inhibition of COX receptors in NSAIDs and activation of opiate receptors in opioids can be avoided by compounds described herein. Furthermore, opioids are known to lose their analgesic potency after to continued administration. (See Benyamin, et al. “Opioid Complications and Side Effects” Pain Physician 11 (2008): S105-S120). As the data indicates compounds described herein have a different mechanism action compared to opioids, a person of ordinary skill in the art would appreciate that compounds described herein would not be expected to lose their analgesic potency like opioids after continued admininistration.

In data set [2] the test system is adult male C57BL/6 mice. The data set is described as follows: Conditioned Place Preference (Abuse) Test. It counts as in vivo, mouse. Conditions: mouse, in vivo, ip. An excerpt:
A conditioned place preference (CPP) model was used to assess the reward properties of compounds of formulae (Ie), or a pharmaceutically acceptable salt of any of the foregoing, in adult male C57BL/6 mice. The CPP model apparatus consisted of a Plexiglas© test unit having three (A, B, C) compartments (9 cm×9 cm×16 cm) configured to allow access to all chambers. Compartments A and C had textually distinct flooring and wall marking. Mice were placed in the middle compartment with free access to the other compartments. On day 1 and 2, the “naive chamber preference” was assessed by placing the animal in the middle chamber twice a day (AM and PM) for 30 min on two consecutive days, with the chamber showing the greatest residence time being called the “preferred chamber”. On “drug pairing days” (days 5, 6, 7 and 8) mice were injected IP with vehicle (50 mM citric acid) in the AM in the preferred chamber and the drug/vehicle in the afternoon in the non-preferred chamber for four consecutive days. On the morning of day 9 (the day after the last drug pairing), the “drug chamber preference” was assessed by placing the mouse (absent any injection) in the middle chamber, with free access to all chambers for 30 minutes. This was repeated five days later (day fourteen), with no intervening drug treatment.
The time spent on days 9 and 14 (e.g. […] respectively after the last drug treatment) in the drug associated chamber was the test datum and is represented in FIG. 1. […] In contrast, there was no increase in the non-preferred chamber residence time when the least-preferred chamber was paired with saline, APAP or test compounds 2 or 28 on either days 9 or 14, or days 0 or 5.

The target of data set [3] is COX-1 (Homo sapiens, UniProt P23219). The data set is described as follows: NSAIDS and Opioid Receptor Test: COX-1. It counts as biochemical. Conditions: 200 μM. How it is done: as §1
Sequence of COX-1 (P23219 24-599): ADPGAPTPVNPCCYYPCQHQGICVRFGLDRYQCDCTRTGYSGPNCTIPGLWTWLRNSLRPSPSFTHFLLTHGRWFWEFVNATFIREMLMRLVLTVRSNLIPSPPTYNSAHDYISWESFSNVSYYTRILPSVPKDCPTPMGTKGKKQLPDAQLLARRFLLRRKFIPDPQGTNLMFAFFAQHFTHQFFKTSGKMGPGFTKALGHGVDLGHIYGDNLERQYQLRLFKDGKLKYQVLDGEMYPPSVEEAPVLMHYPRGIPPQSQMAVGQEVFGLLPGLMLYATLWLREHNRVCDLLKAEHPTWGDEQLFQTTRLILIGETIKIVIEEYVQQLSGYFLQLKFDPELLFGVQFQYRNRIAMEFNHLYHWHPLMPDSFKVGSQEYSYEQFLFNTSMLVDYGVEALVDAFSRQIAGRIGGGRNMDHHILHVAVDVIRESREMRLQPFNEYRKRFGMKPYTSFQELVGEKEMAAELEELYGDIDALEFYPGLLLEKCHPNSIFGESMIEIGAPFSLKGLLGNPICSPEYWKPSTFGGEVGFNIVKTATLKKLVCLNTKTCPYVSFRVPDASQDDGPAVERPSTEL

The record followed here is patent US11242327B2, “Analgesic compounds” (RECURIUM IP HOLDINGS, LLC, priority 2017, dated 2022).

In general, inhibition refers to the change of the read-out against control, counted positive when it falls. As for `Cc1sc(C23CC(N)(C2)C3)nc1C(F)(F)F.Cl` [Compound 2, 3-(5-Methyl-4-(trifluoromethyl)thiazol-2-yl)bicyclo[1.1.1]pentan-1-amine hydrochloride], the inhibition at 200 µM was -2% in data set [1] and 15% in data set [3]. In data set [2], the “least preferred (drug associated) chamber residence time” value is given as “no increase”.
